From paper PMC6243750, “Behavioral Evidence and Olfactory Reception of a Single Alarm Pheromone Component in Halyomorpha halys” (Frontiers in Physiology, 2018)

Experiments:
H. halys OBP4 [1] = target: T1, H. halys OBP4 (Halyomorpha halys, UniProt A0A1L2JGP5); experiment: Fluorescence binding of probe 1-NPN to OBP (Scatchard); conditions: dissociation constant of OBP4/1-NPN, 2 μM OBP, 50 mM Tris-HCl pH 7.4; read-out: KOBPx/1-NPN
T1 sequence (A0A1L2JGP5 20-212): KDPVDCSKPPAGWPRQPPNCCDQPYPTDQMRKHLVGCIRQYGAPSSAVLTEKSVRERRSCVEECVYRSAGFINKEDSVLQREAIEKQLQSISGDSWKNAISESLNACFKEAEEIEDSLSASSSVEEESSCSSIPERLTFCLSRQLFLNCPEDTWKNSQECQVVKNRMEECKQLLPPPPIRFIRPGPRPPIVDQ
Experimental: (§1) Emission fluorescence spectra were measured on a HORIBA FluoromMax®-4 fluorescence spectrophotometer in a right-angle configuration with a 1 cm light path quartz cuvette. The protein was dissolved in 50 mM Tris-HCl buffer, pH 7.4, while all ligands used in binding experiments were used as 1 mM methanol solutions. The excitation wavelength was 337 nm, and the range of the scanning emission wavelength was 380–450 nm.
(§2) The binding constants of OBPs with probe N-phenyl-1-naphtylamine (1-NPN) were determined. We first added 2 ml 50 mM Tris-HCl solution to the cuvette, then added the OBP until the concentration reached 2 μM, measured and recorded the emission spectrum, continued titration, and recorded the highest stable fluorescence intensity. The Scatchard equation was used to record the binding constant of each OPB with 1-NPN.

H. halys OBP25 [2] = target: T2, H. halys OBP25 (Halyomorpha halys, UniProt A0A1L2JGT3); experiment: as above; conditions: dissociation constant of OBP25/1-NPN, 2 μM OBP, 50 mM Tris-HCl pH 7.4; read-out: KOBPx/1-NPN
T2 sequence (A0A1L2JGT3 20-148): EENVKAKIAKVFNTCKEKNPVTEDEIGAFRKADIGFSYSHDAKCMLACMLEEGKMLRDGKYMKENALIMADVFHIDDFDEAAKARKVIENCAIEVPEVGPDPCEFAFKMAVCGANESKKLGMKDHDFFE
Experimental: as §1, §2

H. halys OBP16 [3] = target: T3, H. halys OBP16 (Halyomorpha halys, UniProt A0A1L2JGT7); experiment: as above; conditions: dissociation constant of OBP16/1-NPN, 2 μM OBP, 50 mM Tris-HCl pH 7.4; read-out: KOBPx/1-NPN
T3 sequence (A0A1L2JGT7 23-177): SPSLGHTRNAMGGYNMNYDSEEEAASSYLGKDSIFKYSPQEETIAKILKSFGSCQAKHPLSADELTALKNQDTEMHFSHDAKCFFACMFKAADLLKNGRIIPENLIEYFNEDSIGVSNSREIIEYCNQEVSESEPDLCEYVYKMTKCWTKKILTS
Experimental: as §1, §2

H. halys OBP8 [4] = target: T4, H. halys OBP8 (Halyomorpha halys, UniProt A0A1N7TMV1); experiment: as above; conditions: dissociation constant of OBP8/1-NPN, 2 μM OBP, 50 mM Tris-HCl pH 7.4; read-out: KOBPx/1-NPN
T4 sequence (A0A1N7TMV1 23-143): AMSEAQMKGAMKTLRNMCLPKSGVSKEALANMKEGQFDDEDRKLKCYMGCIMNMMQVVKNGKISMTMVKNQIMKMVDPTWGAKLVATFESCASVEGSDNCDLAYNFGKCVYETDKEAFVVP
Experimental: as §1, §2

H. halys OBP30 [5] = target: T5, H. halys OBP30 (Halyomorpha halys, UniProt A0A1P8P1N8); experiment: as above; conditions: dissociation constant of OBP30/1-NPN, 2 μM OBP, 50 mM Tris-HCl pH 7.4; read-out: KOBPx/1-NPN
T5 sequence (A0A1P8P1N8 19-136): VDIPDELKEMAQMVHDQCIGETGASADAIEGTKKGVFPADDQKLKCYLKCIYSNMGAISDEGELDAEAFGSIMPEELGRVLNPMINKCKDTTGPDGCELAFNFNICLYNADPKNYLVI
Experimental: as §1, §2

adult N. viridula = system: adult N. viridula; parameters: method as in Lockwood and Story, 1987; conditions: ref Lockwood and Story, 1987; cited from earlier work
H. halys adults = experiment: Grouped dispersal (repellency) test; assay type: in vivo, Halyomorpha halys; conditions: 10 μg, 60 s
Experimental: A group test was performed first to assess the repellency of (E)-2-decenal to H. halys adults. In total, 10–20 adults were collected and moved into a plastic rearing box for 1 h to let the adults aggregate and rest before the test. A filter paper loaded with 10 μg (E)-2-decenal was then put into a syringe, and the volatile was released into the air at a distance of 1 cm from the aggregated H. halys adults. The test lasted for 60 s, and the number of dispersed H. halys were counted and recorded. n-Hexane was used as the control following the same protocol. In total, 10 replicates were performed for each treatment.

[6] = system: H. halys adults and 1st to 5th instar nymphs; experiment: Route test with individual stink bugs on circular track; assay type: in vivo, Halyomorpha halys
Experimental: To identify the alarm pheromone activity in each developmental stage of H. halys (female and male adults, and 1st to 5th instar nymphs), we performed a behavioral test (Noge et al., [2015]) using a gradient of (E)-2-decenal solutions (10 μg/μl, 1 μg/μl, 100 ng/μl, 10 ng/μl, and 1 ng/μl) for the nymphs and the last four doses for both genders of adults. A circular track was made by joining the ends of a silicone tube (100 cm long, 1.2 cm inner diameter), and the track was placed on a tripod stand in the behavioral testing laboratory (25°C ± 1°C, relative humidity = 50% ± 10%). An individual H. halys was placed gently on the track and left for 5 min until it was motionless. Different 10-μl concentrations of (E)-2-decenal were loaded onto a filter paper disk (2 cm diameter), and the disk was then placed 2 mm from the stink bug's antenna. The time taken for the nymph or adult stink bug to change direction and the distance it moved away from the starting point within 15 s were observed and recorded. […] Every developmental stage of H. halys for each chemical treatment was tested 15 times.

H. halys = system: H. halys; parameters: method as in Zhang et al., 2014a; conditions: combined with tridecane; ref Zhang et al., 2014a; cited from earlier work
H. halys antennae = experiment: EAG recordings on excised antennae; parameters: species or system Halyomorpha halys; conditions: 10 μg dose, all developmental stages, versus n-hexane control
Experimental: EAG recordings were used to identify electrophysiological activities of H. halys at each developmental stage (female and male adults, and nymphal larvae). Each antenna of the brown marmorated stink bug was prepared following the standard procedures of cutting its tip and base and immediately mounting the excised antenna between two glass capillary Ag/AgCl electrodes filled with Kaissling saline (Tang et al., [2016]). The electrode at the distal end of the antenna was connected through an interface box to a signal acquisition interface board (IDAD; Syntech, Netherlands).
n-Hexane was used as the control, and 1 μg/μl (E)-2-decenal was used as the test solution. The measure dose was 10 μg, and the order of antennal exposure was air, n-hexane, and (E)-2-decenal. In total, 10 replicates were used. The direct voltage was 2 mv, the continuous flow velocity was 150 ml/min, the stimulated flow velocity was 20 ml/min, the stimulation time was 0.1 s, and the stimulus intervals were 10 s.
The following equation was used to calculate the EAG recording result:
Relative response value = sample response value − control response value.

male and female H. halys = system: male and female H. halys; parameters: method as in Zhong et al., 2017; conditions: ref Zhong et al., 2017; cited from earlier work
H. halys OBP4 [7] = target: T1, H. halys OBP4; experiment: Competitive fluorescence-binding assay with 1-NPN as probe
Experimental: as §1
(§3) The binding abilities of the OBPs and (E)-2-decenal were later investigated. Fluorescence intensities were automatically subtracted from blank fluorescence values when harvested from instrument. The excitation wavelength was set at 337 nm, and the range of the scanning emission wavelength was 380–450 nm. First, 2 mL 50-mM Tris-HCl solution was added, and then the OBP and 1-NPN were added until the concentration was 2 μM. The highest stable fluorescence intensity was record. Then, we added the (E)-2-decenal, which was dissolved in methanol in the cuvette, and continued the titration from 2 μM until the fluorescence intensity was stable. The highest stable fluorescence intensity was recorded. Each OBP was tested three times. The dissociation constant was calculated based on the formula Kd = [IC50]/(1 + [1-NPN]/K1−NPN), where IC50 represents the (E)-2-decenal concentration when the fluorescence intensity of [OBP/1-NPN] declined to the half of the highest value, [1-NPN] represents the dissociative concentration of 1-NPN, and K1−NPN represents the dissociation constant of OBP/1-NPN.

H. halys OBP25 [8] = target: T2, H. halys OBP25; experiment: as above
Experimental: as §1, §3

H. halys OBP16 [9] = target: T3, H. halys OBP16; experiment: as above
Experimental: as §1, §3

H. halys OBP8 [10] = target: T4, H. halys OBP8; experiment: as above
Experimental: as §1, §3

H. halys OBP30 [11] = target: T5, H. halys OBP30; experiment: as above
Experimental: as §1, §3

entomopathogenic fungi = system: entomopathogenic fungi; parameters: method as in Weber et al., 2017b; conditions: ref Weber et al., 2017b; cited from earlier work
[12] = Kd = [IC50]/(1 + [1-NPN]/K1-NPN), OBP and 1-NPN 2 μM
[13] = concentration at which [OBP/1-NPN] fluorescence declined to half

SMILES: c1ccc(Nc2cccc3ccccc23)cc1 [1-NPN, N-phenyl-1-naphtylamine]
- Kd (H. halys OBP4 [1]): 9.18 ± 2.67 µM
- Kd (H. halys OBP25 [2]): 0.51 ± 0.3 µM
- Kd (H. halys OBP16 [3]): 1.13 ± 0.08 µM
- Kd (H. halys OBP8 [4]): 2.74 ± 0.8 µM
- Kd (H. halys OBP30 [5]): 2.79 ± 0.74 µM

SMILES: CCCCCCC/C=C/C=O [(E)-2-decenal]
- alarm effects (adult N. viridula): no alarm effects
- Repellent rates (H. halys adults): 84.1 ± 5.14%
- repellence compared with n-hexane control ([6]; 1 μg and 10 μg, all stages of H. halys): significantly repelled
- moving distances compared with n-hexane control ([6]; 3rd to 5th instar nymphs, all tested doses, within 15 s): significantly longer moving distances
- repellent effect starting at a tested dose ([6]; 5th instar nymphs, response time): 10 ng
- feeding deterrence (H. halys): strong feeding deterrent
- EAG responses (H. halys antennae): significantly greater electrophysiological responses compared with the n-hexane control, except for the 1st instar nymphs
- repellence in Y-tube assays (male and female H. halys): strongly repel
- binding activity to (E)-2-decenal (H. halys OBP4 [7]; OBP4, in words): did not show a good binding activity
- Kd (H. halys OBP4 [7]; OBP4, Kd = [IC50]/(1 + [1-NPN]/K1-NPN), OBP and 1-NPN 2 μM): 26 ± 3.01 µM
- IC50 (H. halys OBP4 [7]; OBP4, concentration at which [OBP/1-NPN] fluorescence declined to half): 31.3 ± 3.61 µM
- Kd (H. halys OBP25 [8]; [12]): 2.21 ± 0.064 µM
- IC50 (H. halys OBP25 [8]; [13]): 7.18 ± 0.21 µM
- Kd (H. halys OBP16 [9]; [12]): 6.16 ± 0.42 µM
- IC50 (H. halys OBP16 [9]; [13]): 13.7 ± 0.94 µM
- Kd (H. halys OBP8 [10]; [12]): 8.61 ± 0.24 µM
- IC50 (H. halys OBP8 [10]; [13]): 13.7 ± 0.38 µM
- Kd (H. halys OBP30 [11]; [12]): 10.5 ± 0.64 µM
- IC50 (H. halys OBP30 [11]; [13]): 16.7 ± 1.01 µM
- effect on entomopathogenic fungi (entomopathogenic fungi): fungistatic effect and inhibits spore germination
